These are literature values, as cited in patent US7959936B2, “Emulsifications-stable pesticidal composition” (Syngenta Crop Protection, Inc., priority 2003, dated 2011).

Data set [1] relates to Rabbit.
For data set [2], the system named is Rabbit. The source holds these as a separate data set.
Data set [3] relates to Rabbit. To be noted: no unit printed for this line.
Data set [4] has as its system Rabbit. This is another data set of the same source.
For data set [5] the following is noted: 25° C.

Where two headings read alike, the source gives them in different places.

As for “2-(thiazol-4-ine)benzimidazole [Thiabendazole]”, in the data set on Rabbit [1], the “Irritability Mucous membrane” value is reported as “Non-irritating”. In the data set with Quail, the “Acute oral toxicity LD50 (mg/kg)” value is recorded as <2,250 mg/kg. For the same substance, in the data set on Guinea pig, the Antigenicity result is given as “None”. Also, the “TLm (96 hrs)” value in the data set on Bluegill is 19 mg/L. Besides, the “TLm (96 hrs)” value with Rainbow trout was 0.5 mg/L. In addition, the “Acute oral toxicity LD50 (mg/kg)” value in the data set on Mallard duck is 5,620 mg/kg. For the same substance, the “Irritability Skin” value in the data set with Rabbit [2] is on record as “Non-irritating”. Besides, the “Acute oral toxicity (LD50: mg/kg)” value in the data set on Rat is 3,100 mg/kg. In addition, in the data set on Rabbit [3], the Acute percutaneous toxicity was <2,000. Also, the “Acute oral toxicity (LD50: mg/kg)” value with Rabbit [4] is 3,800 mg/kg. For the setting “20° C.”, the “Solubility, 1,2-dichloroethane” value was 810 µg/mL; the “Solubility, Acetone” value was 2430 µg/mL; the “Solubility, Ethyl acetate” value is 1490 µg/mL; the “Solubility, Methanol” value was 8280 µg/mL. Where the note is “20° C.”, the “Solubility, Xylene” value was 130 µg/mL; the “Solubility, n-Hexane” value is less than 10 µg/mL; the “Solubility, n-Octanol” value is 3910 µg/mL. For the setting “20° C., pH4”, the “Solubility, Water” value was 160 µg/mL. For the same substance, where the note is “20° C., pH7”, the “Solubility, Water” value is 30 µg/mL. Moreover, the “solubility in short-chain alcohols” value (such as methyl alcohol) is on record as “comparatively satisfactory solubility”. For the setting “water”, the “solubility in water” value is reported as “practically insoluble”. Besides, the “solubility in typical industrial solvents” value (xylene and petroleum-based solvents) is “only slightly soluble”. In addition, the “Acute oral toxicity (LD50: mg/kg)” value with Mouse is recorded as 3,600 mg/kg. For the same substance, in data set [5], the Vapor pressure result is given as “Vapor pressure: 4.6 × 10^−4 mPa (25° C)”.
